Source: paper PMC12155096 (International Journal of Molecular Sciences, 2025)
Read-outs that look alike come from different tables or passages of the source.

Key:
human CYP2C9 = human CYP2C9 (Homo sapiens, UniProt P11712)
[1] = target: Photinus pyralis (firefly) luciferase (Photinus pyralis, UniProt P08659); assay: biochemical; type: biochemical
human CYP2C19 = human CYP2C19 (Homo sapiens, UniProt P33261)
CYP3A4 = CYP3A4 (Homo sapiens, UniProt P08684)
human CYP2D6 = human CYP2D6 (Homo sapiens, UniProt P10635)
human CYP1A2 = target: T1, human CYP1A2 (Homo sapiens, UniProt P05177)
T1 sequence (P05177 1-516): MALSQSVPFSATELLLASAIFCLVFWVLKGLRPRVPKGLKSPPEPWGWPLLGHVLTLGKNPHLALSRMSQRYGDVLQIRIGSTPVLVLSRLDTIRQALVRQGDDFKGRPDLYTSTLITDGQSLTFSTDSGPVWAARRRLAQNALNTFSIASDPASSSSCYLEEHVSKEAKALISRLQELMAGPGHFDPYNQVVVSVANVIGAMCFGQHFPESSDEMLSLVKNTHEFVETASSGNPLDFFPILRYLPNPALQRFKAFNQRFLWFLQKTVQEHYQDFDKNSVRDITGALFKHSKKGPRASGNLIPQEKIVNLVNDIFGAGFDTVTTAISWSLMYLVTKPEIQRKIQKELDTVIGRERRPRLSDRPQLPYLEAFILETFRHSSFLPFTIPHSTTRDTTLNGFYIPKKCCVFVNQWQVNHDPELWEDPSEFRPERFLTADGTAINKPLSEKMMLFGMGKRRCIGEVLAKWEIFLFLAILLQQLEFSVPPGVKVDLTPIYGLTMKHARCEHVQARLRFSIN

[2] = read-out: Luciferase IC50 (half-maximal inhibitory concentration)

Chain of CYP3A4 (P08684 whole entry): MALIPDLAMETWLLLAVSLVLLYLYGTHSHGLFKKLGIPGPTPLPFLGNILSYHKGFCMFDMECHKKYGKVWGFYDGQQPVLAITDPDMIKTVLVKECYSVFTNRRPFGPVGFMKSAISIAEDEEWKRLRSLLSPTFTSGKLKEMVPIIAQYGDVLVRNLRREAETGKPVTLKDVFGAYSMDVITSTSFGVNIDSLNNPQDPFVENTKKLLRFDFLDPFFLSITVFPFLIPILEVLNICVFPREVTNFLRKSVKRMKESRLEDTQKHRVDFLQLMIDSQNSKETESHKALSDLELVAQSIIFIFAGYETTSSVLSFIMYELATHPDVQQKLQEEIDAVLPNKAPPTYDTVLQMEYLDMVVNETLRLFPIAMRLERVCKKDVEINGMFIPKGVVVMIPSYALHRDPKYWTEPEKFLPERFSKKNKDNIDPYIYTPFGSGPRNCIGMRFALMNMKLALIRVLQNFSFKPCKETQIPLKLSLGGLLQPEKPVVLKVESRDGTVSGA
Chain of human CYP2D6 (P10635 whole entry): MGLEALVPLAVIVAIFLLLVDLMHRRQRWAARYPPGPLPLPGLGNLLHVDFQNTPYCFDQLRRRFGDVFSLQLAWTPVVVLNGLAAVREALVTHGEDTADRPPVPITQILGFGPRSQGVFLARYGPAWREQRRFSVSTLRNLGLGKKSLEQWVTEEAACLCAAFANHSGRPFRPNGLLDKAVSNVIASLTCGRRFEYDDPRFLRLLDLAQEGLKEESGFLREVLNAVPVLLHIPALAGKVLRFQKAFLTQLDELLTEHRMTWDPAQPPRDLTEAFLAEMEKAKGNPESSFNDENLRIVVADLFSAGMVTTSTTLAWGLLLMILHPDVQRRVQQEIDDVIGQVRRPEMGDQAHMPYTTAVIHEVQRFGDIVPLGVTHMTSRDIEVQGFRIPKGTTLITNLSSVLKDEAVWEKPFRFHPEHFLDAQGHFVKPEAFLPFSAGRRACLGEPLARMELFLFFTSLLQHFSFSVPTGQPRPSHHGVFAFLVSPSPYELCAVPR
Chain of human CYP2C9 (P11712 whole entry): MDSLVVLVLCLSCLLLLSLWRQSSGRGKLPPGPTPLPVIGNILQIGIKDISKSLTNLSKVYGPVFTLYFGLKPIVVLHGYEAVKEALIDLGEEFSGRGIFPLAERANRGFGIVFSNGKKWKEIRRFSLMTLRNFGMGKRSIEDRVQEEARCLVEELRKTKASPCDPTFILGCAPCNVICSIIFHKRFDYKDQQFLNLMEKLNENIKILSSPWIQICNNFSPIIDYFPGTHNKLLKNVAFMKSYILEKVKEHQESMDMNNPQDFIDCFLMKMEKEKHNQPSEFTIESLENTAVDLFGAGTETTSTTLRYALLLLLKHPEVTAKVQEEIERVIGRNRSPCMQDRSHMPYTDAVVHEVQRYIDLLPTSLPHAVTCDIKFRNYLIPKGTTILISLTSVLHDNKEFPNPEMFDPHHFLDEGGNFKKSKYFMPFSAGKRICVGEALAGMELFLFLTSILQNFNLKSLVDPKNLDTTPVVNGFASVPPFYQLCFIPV
Chain of human CYP2C19 (P33261 whole entry): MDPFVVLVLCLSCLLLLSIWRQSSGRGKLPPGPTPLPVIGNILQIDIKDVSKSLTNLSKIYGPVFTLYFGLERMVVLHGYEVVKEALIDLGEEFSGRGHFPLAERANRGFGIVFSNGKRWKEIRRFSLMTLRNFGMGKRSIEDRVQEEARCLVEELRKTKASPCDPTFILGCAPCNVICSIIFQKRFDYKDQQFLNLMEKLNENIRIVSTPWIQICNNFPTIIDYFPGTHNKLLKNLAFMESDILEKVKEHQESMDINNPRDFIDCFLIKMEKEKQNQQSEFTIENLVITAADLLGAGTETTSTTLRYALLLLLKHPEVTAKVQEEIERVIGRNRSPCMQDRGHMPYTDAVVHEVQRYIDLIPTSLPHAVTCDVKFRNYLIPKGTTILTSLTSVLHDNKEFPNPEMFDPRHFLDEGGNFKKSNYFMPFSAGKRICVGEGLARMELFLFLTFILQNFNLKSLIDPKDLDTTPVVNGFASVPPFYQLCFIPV
Chain of Photinus pyralis (firefly) luciferase (P08659 whole entry): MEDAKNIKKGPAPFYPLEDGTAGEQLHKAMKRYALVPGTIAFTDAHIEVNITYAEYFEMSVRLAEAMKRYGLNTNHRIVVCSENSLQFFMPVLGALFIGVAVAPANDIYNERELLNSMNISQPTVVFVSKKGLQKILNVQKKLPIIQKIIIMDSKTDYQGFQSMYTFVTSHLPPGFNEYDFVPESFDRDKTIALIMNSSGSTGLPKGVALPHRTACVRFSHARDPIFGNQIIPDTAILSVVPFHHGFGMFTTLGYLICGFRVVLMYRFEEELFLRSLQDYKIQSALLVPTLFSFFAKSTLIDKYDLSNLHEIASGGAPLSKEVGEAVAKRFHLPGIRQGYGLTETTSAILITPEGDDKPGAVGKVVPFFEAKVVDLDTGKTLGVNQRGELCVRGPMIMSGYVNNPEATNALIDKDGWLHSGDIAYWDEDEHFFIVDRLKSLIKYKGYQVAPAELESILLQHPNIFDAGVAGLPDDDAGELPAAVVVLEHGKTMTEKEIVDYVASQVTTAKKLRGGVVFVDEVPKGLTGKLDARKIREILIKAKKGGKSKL

Row | Structure (SMILES) | Luciferase IC50 (half-maximal inhibitory concentration) [1] | IC50 (human CYP2C19) [µM] | IC50 (human CYP1A2) [µM] | IC50 (CYP3A4) [µM] | IC50 (human CYP2C9) [µM] | IC50 (human CYP2D6) [µM] | also measured
1 | CCOC(=O)c1ccc(OC(=O)CCCCCN=C(N)N)cc1.CS(=O)(=O)O [Gabexate mesilate] | Inactive | 10.3 | 20.1 | – | – | – | AC50 (human CYP2C9): 10.3 µM; CYP2C9 Efficacy (human CYP2C9): 10.33 ± 4.77 (82 ± 30) %; CYP2C19 Efficacy (human CYP2C19): 10.33 ± 4.77 (-82 ± 30) %; AC50 (CYP3A4): 21.2 µM; CYP3A4 IC50 (half-maximal inhibitory concentration) (CYP3A4): 21.25 ± 8.41 (37 ± 5) µM; AC50 (human CYP2D6): 0.27 µM; CYP2D6 Efficacy (human CYP2D6): 0.27 ± 0.04 (-102 ± 4) %; CYP1A2 Efficacy (human CYP1A2): 20.14 ± 4.79 (-49 ± 20) %
2 | CC[C@H]1C[C@@H]2C[C@H]3c4[nH]c5ccc(OC)cc5c4CCN(C2)[C@@H]13.Cl [Ibogaine hydrochloride] | Inactive | 83.1 | 61.5 | 32.5 | – | – | CYP2C9 Efficacy (human CYP2C9): 44.07 ± 15.72 (-45 ± 10) %; CYP2D6 Efficacy (human CYP2D6): 0.76 ± 0.1 (-105 ± 7) %
3 | CC(C)C[C@H]1[C@@H](c2ccccc2)OC(=O)N1CCCN1CCCCCC1.Cl [Ipenoxazone hydrochloride] | – | 2.3 | – | 0.88 | – | – | CYP2C9 IC50 (human CYP2C9): Inactive; Luciferase IC50 [1]: Inactive; CYP2D6 Efficacy (human CYP2D6): 0.44 ± 0.1 (-105 ± 4) %; CYP1A2 IC50 (human CYP1A2): Inactive
4 | Cc1oc(=O)oc1COC(=O)[C@@H]1N2C(=O)[C@@H](NC(=O)[C@H](N)c3ccccc3)[C@H]2SC1(C)C.Cl [Lenampicillin hydrochloride] | Inactive | – | – | 0.62 | 41.3 | – | CYP2C19 IC50 (half-maximal inhibitory concentration) (human CYP2C19): Inactive; CYP2D6 IC50 (half-maximal inhibitory concentration) (human CYP2D6): Inactive; CYP1A2 IC50 (half-maximal inhibitory concentration) (human CYP1A2): Inactive
5 | O=S(=O)([O-])C(F)(F)C(F)(F)C(F)(F)C(F)(F)C(F)(F)C(F)(F)C(F)(F)C(F)(F)F.[Li+] [Lithium perfluorooctane sulfonate] | Inactive | 86.1 | – | – | 0.48 | – | CYP3A4 IC50 (half-maximal inhibitory concentration) (CYP3A4): Inactive; CYP2D6 IC50 (half-maximal inhibitory concentration) (human CYP2D6): Inactive; CYP1A2 IC50 (half-maximal inhibitory concentration) (human CYP1A2): Inactive
6 | CN1[C@@H]2CCC(C)(C)[C@H]1C[C@H](OC(=O)C(O)(c1cccs1)c1cccs1)C2 [Mazaticol] | Inactive | – | – | 0.22 | – | 14.4 | CYP2C9 IC50 (half-maximal inhibitory concentration) (human CYP2C9): Inactive; CYP2C19 IC50 (half-maximal inhibitory concentration) (human CYP2C19): Inactive; CYP1A2 IC50 (half-maximal inhibitory concentration) (human CYP1A2): Inactive
7 | CCOC(=O)c1c(C)n(C)c2ccc(O)cc12 [Mecarbinate] | Inactive | 7.23 | 0.54 | 5.97 | 12.9 | 17.9 | –
8 | [Cl][Hg][Cl] [Mercuric chloride] | – | 0.77 | 5.66 | 2.25 | 0.47 | 1.61 | IC50 ([1]; read-out: Luciferase IC50): 11 µM
9 | CC(=O)[O-].CC(=O)[O-].[Hg+2] [Mercury(II) acetate] | – | 0.91 | 4.19 | 2.86 | 0.5 | 1.08 | CYP2C9 Efficacy (in parenthesis) (human CYP2C9): 0.5 ± 0.06 (-104 ± 2) %; Luciferase Efficacy (in parenthesis) [1]: 6.84 ± 0.45 (-85 ± 7) %; IC50 [1, 2]: 6.84 µM; CYP2C19 Efficacy (in parenthesis) (human CYP2C19): 0.91 ± 0.47 (-137 ± 5) %; CYP3A4 Efficacy (in parenthesis) (CYP3A4): 2.86 ± 0.53 (-93 ± 1) %; CYP2D6 Efficacy (in parenthesis) (human CYP2D6): 1.08 ± 0.07 (-72 ± 4) %; CYP1A2 Efficacy (in parenthesis) (human CYP1A2): 4.19 ± 0.75 (-100 ± 9) %
10 | [I][Hg][I] [Mercury(II) iodide] | – | 1.04 | 3.7 | 2.53 | 0.54 | 1.67 | IC50 ([1]; read-out: Luciferase IC50): 5.25 µM
11 | COc1cc(Cl)ccc1Oc1ccc(Cl)cc1Cl [Methyl triclosan] | – | 0.72 | 15.1 | 70.2 | 12 | – | IC50 ([1]; read-out: Luciferase IC50): 48.9 µM; CYP2D6 IC50 (human CYP2D6): Inactive
12 | COC(=O)c1cncn1C(C)c1ccccc1.Cl (stereo not drawn) [Metomidate hydrochloride] | Inactive | 4.05 | – | 0.25 | 34 | 5.65 | CYP1A2 IC50 (half-maximal inhibitory concentration) (human CYP1A2): Inactive
13 | CCCN(CCC)CCc1c[nH]c2ccccc12.Cl [N,N-Dipropyltryptamine hydrochloride] | – | 65.9 | 20.8 | – | – | 0.31 | CYP2C9 IC50 (human CYP2C9): Inactive; Luciferase IC50 [1]: Inactive; CYP3A4 IC50 (CYP3A4): Inactive
14 | Cc1ccc([N+](=O)[O-])[c]2c1[O][Hg]2 [Nitromersol] | – | 1.28 | 4.36 | 8.08 | 0.87 | 0.78 | CYP2C9 Efficacy (in parenthesis) (human CYP2C9): 0.87 ± 0 (-104 ± 2) %; Luciferase Efficacy (in parenthesis) [1]: 12.48 ± 4.81 (-100 ± 9) %; IC50 [1, 2]: 12.5 µM; CYP2C19 Efficacy (in parenthesis) (human CYP2C19): 1.28 ± 0.79 (-139 ± 25) %; CYP3A4 Efficacy (in parenthesis) (CYP3A4): 8.08 ± 0.55 (-86 ± 6) %; CYP2D6 Efficacy (in parenthesis) (human CYP2D6): 0.78 ± 0.09 (-101 ± 2) %; CYP1A2 Efficacy (in parenthesis) (human CYP1A2): 4.36 ± 1.13 (-86 ± 7) %
15 | CN1CCN(C2Cc3ccccc3Sc3ccc(Cl)cc32)CC1.O=C(O)/C=C\C(=O)O (stereo not drawn) [Octoclothepine maleate] | – | 11.5 | 28.3 | 2.28 | 30.6 | 0.26 | Luciferase IC50 [1]: Inactive
16 | O=S(=O)([O-])C(F)(F)C(F)(F)C(F)(F)C(F)(F)C(F)(F)C(F)(F)C(F)(F)C(F)(F)F.[K+] [PFOS-K] | Inactive | 39.6 | – | – | 0.61 | – | CYP3A4 IC50 (half-maximal inhibitory concentration) (CYP3A4): Inactive; CYP2D6 IC50 (half-maximal inhibitory concentration) (human CYP2D6): Inactive; CYP1A2 IC50 (half-maximal inhibitory concentration) (human CYP1A2): Inactive
17 | O=S(=O)(O)C(F)(F)C(F)(F)C(F)(F)C(F)(F)C(F)(F)C(F)(F)C(F)(F)C(F)(F)F [PFOS] | – | 23.4 | 32.3 | 80 | 0.51 | 28.4 | IC50 [1, 2]: 71.3 µM
18 | OC(c1ccc(Cl)cc1)(c1ccc(Cl)cc1)c1cccnc1 [Parinol] | Inactive | 0.08 | 38.5 | 2.75 | 0.4 | 14.2 | CYP2C9 Efficacy (in parenthesis) (human CYP2C9): 0.4 ± 0.05 (-109 ± 9) %; CYP2C19 Efficacy (in parenthesis) (human CYP2C19): 0.08 ± 0.01 (-151 ± 12) %; CYP3A4 Efficacy (in parenthesis) (CYP3A4): 2.75 ± 0.47 (-69 ± 3) %; CYP2D6 Efficacy (in parenthesis) (human CYP2D6): 14.17 ± 5.05 (-105 ± 7) %; CYP1A2 Efficacy (in parenthesis) (human CYP1A2): 38.47 ± 2.51 (-60 ± 13) %
19 | CO/C=C(/C(=O)OC)c1ccccc1COc1cccc(C(F)(F)F)n1 [Picoxystrobin] | Inactive | 0.99 | 32.1 | – | 38.4 | 38.4 | AC50 (human CYP2C9): 38.4 µM; AC50 (human CYP2C19): 0.99 µM; AC50 (CYP3A4): 2.32 µM; CYP3A4 IC50 (half-maximal inhibitory concentration) (CYP3A4): 2.32 ± 0.75 (38 ± 1) µM; AC50 (human CYP2D6): 38.4 µM; AC50 (human CYP1A2): 32.1 µM
